Assays:
Assay type in all cases: in vivo
Avena sativa [1] = test: Weed control pre-emergence (greenhouse pot test); details: pre-emergence, 2,5 kg a.i./ha, visual rating after 3-4 weeks
Source text: (§1) Die Schädigung der Unkrautpflanzen bzw. die Kulturpflanzenverträglichkeit wurde gemäß einem Schlüssel bonitiert, in dem die Wirksamkeit durch Wertzahlen von 0 - 5 ausgedrückt ist. Dabei bedeutet:
(§2) Samen bzw. Rhizomstücke von mono- und dikotylen Unkrautpflanzen wurden in Plasstiktöpfen (0 = 9 cm) in sandiger Lehmerde ausgelegt und mit Erde abgedeckt. Die in Form von benetzbaren Pulvern oder Emulsionskonzentraten formulierten erfindungsgemäßen Verbindungen wurden dann als wäßrige Suspensionen bzw. Emulsionen mit einer Wasseraufwandmenge von umgerechnet 600-800 1/ha in unterschiedlichen Dosierungen auf die Oberfläche der Abdeckerde appliziert. Nach der Behandlung wurden die Töpfe im Gewächshaus aufgestellt und unter guten Wachstumsbedingungen für die Unkrautpflanzen gehalten (Temperatur 23 plus/minus 1 Grad Celsius, relative Luftfeuchte 60-80 %).
(§3) Die optische Bonitur der Pflanzen- bzw. Auflaufschäden erfolgte nach dem Auflaufen der Versuchspflanzen nach einer Versuchszeit von 3-4 Wochen im Vergleich zu unbehandelten Kontrollen.

Chrysanthemum segetum [2] = test: Weed control pre-emergence (greenhouse pot test); details: pre-emergence, 2,5 kg a.i./ha, visual rating after 3-4 weeks
Source text: as §1, §2, §3

Sinapis arvensis [3] = test: Weed control pre-emergence (greenhouse pot test); details: pre-emergence, 2,5 kg a.i./ha, visual rating after 3-4 weeks
Source text: as §1, §2, §3

Echinochloa crus-galli [4] = test: Weed control pre-emergence (greenhouse pot test); design: key: 0: = ohne Wirkung bzw. Schaden; 1: = 0 - 20 % Wirkung bzw. Schaden; = 20 - 40 % Wirkung bzw. Schaden; 3: = 40 - 60 % Wirkung bzw. Schaden; 4: = 60 - 80 % Wirkung bzw. Schaden; 5: = 80 - 100 % Wirkung bzw. Schaden; details: pre-emergence, 2,5 kg a.i./ha, visual rating after 3-4 weeks
Source text: as §1, §2, §3

Stellaria media [5] = test: Weed control pre-emergence (greenhouse pot test); design: key: 0: = ohne Wirkung bzw. Schaden; 1: = 0 - 20 % Wirkung bzw. Schaden; = 20 - 40 % Wirkung bzw. Schaden; 3: = 40 - 60 % Wirkung bzw. Schaden; 4: = 60 - 80 % Wirkung bzw. Schaden; 5: = 80 - 100 % Wirkung bzw. Schaden; details: pre-emergence, 2,5 kg a.i./ha, visual rating after 3-4 weeks
Source text: as §1, §2, §3

Avena sativa [6] = test: Weed control post-emergence (greenhouse pot test); details: post-emergence (three-leaf stage), 2,5 kg a.i./ha, visual rating after ca. 3-4 weeks
Source text: as §1
(§4) Samen bzw. Rhizomstüeke von mono- und dikotylen Unkräutern wurden in Plasstiktöpfen (φ= 9 cm) in sandigem Lehmboden ausgelegt, mit Erde abgedeckt und im Gewächshaus unter guten Wachstumsbedingungen angezogen. Drei Wochen nach der Aussaat wurden die Versuchspflanzen im Dreiblattstadium behandelt. Die als Spritzpulver bzw. als Eτulsionskonzentrate formulierten erfindungsgemäßen Verbindungen wurden in verschiedenen Dosierungen mit einer Wasseraufwandmenge von umgerechnet 600-800 l/ha auf die grünen Pflanzenteile gesprüht und nach ca. 3-4 Wochen Standzeit der Versuchspflanzen im Gewächshaus unter optimalen Wachstumsbedingungen (Temperatur 23°C +/- 1°C, relative Luftfeuchte 60-80 %) die Wirkung der Präparate optisch im Vergleich zu unbehandelten Kontrollen bonitiert.

Chrysanthemum segetum [7] = test: Weed control post-emergence (greenhouse pot test); details: post-emergence (three-leaf stage), 2,5 kg a.i./ha, visual rating after ca. 3-4 weeks
Source text: as §1, §4

Sinapis arvensis [8] = test: Weed control post-emergence (greenhouse pot test); details: post-emergence (three-leaf stage), 2,5 kg a.i./ha, visual rating after ca. 3-4 weeks
Source text: as §1, §4

Echinochloa crus-galli [9] = test: Weed control post-emergence (greenhouse pot test); design: key: 0: = ohne Wirkung bzw. Schaden; 1: = 0 - 20 % Wirkung bzw. Schaden; = 20 - 40 % Wirkung bzw. Schaden; 3: = 40 - 60 % Wirkung bzw. Schaden; 4: = 60 - 80 % Wirkung bzw. Schaden; 5: = 80 - 100 % Wirkung bzw. Schaden; details: post-emergence (three-leaf stage), 2,5 kg a.i./ha, visual rating after ca. 3-4 weeks
Source text: as §1, §4

Stellaria media [10] = test: Weed control post-emergence (greenhouse pot test); design: key: 0: = ohne Wirkung bzw. Schaden; 1: = 0 - 20 % Wirkung bzw. Schaden; = 20 - 40 % Wirkung bzw. Schaden; 3: = 40 - 60 % Wirkung bzw. Schaden; 4: = 60 - 80 % Wirkung bzw. Schaden; 5: = 80 - 100 % Wirkung bzw. Schaden; details: post-emergence (three-leaf stage), 2,5 kg a.i./ha, visual rating after ca. 3-4 weeks
Source text: as §1, §4

| Structure (SMILES) | Herbizide Wirkung im Vorauflauf AS (Avena sativa [1]) | Herbizide Wirkung im Vorauflauf CRS (Chrysanthemum segetum [2]) | Herbizide Wirkung im Vorauflauf SIA (Sinapis arvensis [3]) | Herbizide Wirkung im Vorauflauf ECG (Echinochloa crus-galli [4]) | Herbizide Wirkung im Vorauflauf STM (Stellaria media [5]) | Herbizide Wirkung im Nachauflauf AS (Avena sativa [6]) | Herbizide Wirkung im Nachauflauf CRS (Chrysanthemum segetum [7]) | Herbizide Wirkung im Nachauflauf SIA (Sinapis arvensis [8]) | Herbizide Wirkung im Nachauflauf ECG (Echinochloa crus-galli [9]) | Herbizide Wirkung im Nachauflauf STM (Stellaria media [10]) |
| --- | --- | --- | --- | --- | --- | --- | --- | --- | --- | --- |
| O=C(OC(OCC(F)(F)C(F)F)C(Cl)(Cl)Cl)c1cc(Oc2ccc(C(F)(F)F)cc2Cl)ccc1[N+](=O)[O-] (centres unmarked) [compound 7] | 3 (= 40 - 60 % Wirkung bzw. Schaden) | 5 (= 80 - 100 % Wirkung bzw. Schaden) | 3 (= 40 - 60 % Wirkung bzw. Schaden) | 5 (= 80 - 100 % Wirkung bzw. Schaden) | 2 (= 20 - 40 % Wirkung bzw. Schaden) | 2 (= 20 - 40 % Wirkung bzw. Schaden) | 5 (= 80 - 100 % Wirkung bzw. Schaden) | 5 (= 80 - 100 % Wirkung bzw. Schaden) | 3 (= 40 - 60 % Wirkung bzw. Schaden) | 5 (= 80 - 100 % Wirkung bzw. Schaden) |
| CC1(C)OCC(COC(OC(=O)c2cc(Oc3ccc(C(F)(F)F)cc3Cl)ccc2[N+](=O)[O-])C(Cl)(Cl)Cl)O1 (centres unmarked) [compound 6, 5-(2-Chlor-4-trifluormethylphenoxy)-2-nitrobenzoesäure-1-(2,2-dimethyl-1,3-dioxolan-4-yl)-methoxy-2,2,2-trichlorethylester] | 1 (= 0 - 20 % Wirkung bzw. Schaden) | 3 (= 40 - 60 % Wirkung bzw. Schaden) | 2 (= 20 - 40 % Wirkung bzw. Schaden) | 0 | 0 | 1 (= 0 - 20 % Wirkung bzw. Schaden) | 4 (= 60 - 80 % Wirkung bzw. Schaden) | 4 (= 60 - 80 % Wirkung bzw. Schaden) | 0 | 3 (= 40 - 60 % Wirkung bzw. Schaden) |

From patent publication EP0217101A1, “Substituted diphenyl ethers, process for their preparation and their use as herbicides” (HOECHST AKTIENGESELLSCHAFT, priority 1985, dated 1987)
